Measured values from US20140137294A1, “GLUCOSINOLATE TRANSPORTER PROTEIN AND USES THEREOF” (UNIVERSITY OF COPENHAGEN, priority 2010, published 2014).

Columns and labels:
[1] = target: T1, AtGTR2 (Arabidopsis thaliana, UniProt Q9LV10); experiment: Glucosinolate uptake by AtGTR2 expressing oocytes, LC-MS analysis of oocyte extracts; assay type: cell-based; conditions: data not shown
T1 construct: expressed in transfected cells; host or cells: Xenopus oocytes injected with in vitro transcribed cRNA (vector pNB1u)
T1 sequence (Q9LV10 1-616): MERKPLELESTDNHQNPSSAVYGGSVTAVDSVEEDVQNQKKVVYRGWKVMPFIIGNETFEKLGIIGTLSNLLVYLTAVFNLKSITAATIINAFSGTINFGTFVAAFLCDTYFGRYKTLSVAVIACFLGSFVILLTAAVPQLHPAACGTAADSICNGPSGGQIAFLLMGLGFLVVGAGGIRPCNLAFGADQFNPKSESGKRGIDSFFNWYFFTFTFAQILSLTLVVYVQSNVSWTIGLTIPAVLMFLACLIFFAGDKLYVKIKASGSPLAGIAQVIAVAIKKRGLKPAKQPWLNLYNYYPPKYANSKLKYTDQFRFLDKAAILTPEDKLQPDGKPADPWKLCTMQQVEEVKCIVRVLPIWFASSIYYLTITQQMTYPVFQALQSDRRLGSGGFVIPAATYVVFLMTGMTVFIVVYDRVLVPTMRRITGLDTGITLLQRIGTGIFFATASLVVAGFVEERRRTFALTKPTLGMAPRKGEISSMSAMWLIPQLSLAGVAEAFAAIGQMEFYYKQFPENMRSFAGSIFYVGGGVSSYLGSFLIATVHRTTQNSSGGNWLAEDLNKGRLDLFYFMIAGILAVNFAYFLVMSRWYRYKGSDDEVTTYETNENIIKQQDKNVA

[2] = target: T2, AtGTR1 (Arabidopsis thaliana, UniProt Q944G5); experiment: Substrate-induced currents in voltage-clamped Xenopus oocytes expressing AtGTR1; assay type: cell-based; conditions: AtGTR1
T2 construct: A library of Arabidopsis transporters available as full length cDNAs from the RIKEN bioresource center; expressed in transfected cells; host or cells: Xenopus oocytes injected with in vitro transcribed cRNA
T2 sequence (Q944G5 31-636 limits assumed): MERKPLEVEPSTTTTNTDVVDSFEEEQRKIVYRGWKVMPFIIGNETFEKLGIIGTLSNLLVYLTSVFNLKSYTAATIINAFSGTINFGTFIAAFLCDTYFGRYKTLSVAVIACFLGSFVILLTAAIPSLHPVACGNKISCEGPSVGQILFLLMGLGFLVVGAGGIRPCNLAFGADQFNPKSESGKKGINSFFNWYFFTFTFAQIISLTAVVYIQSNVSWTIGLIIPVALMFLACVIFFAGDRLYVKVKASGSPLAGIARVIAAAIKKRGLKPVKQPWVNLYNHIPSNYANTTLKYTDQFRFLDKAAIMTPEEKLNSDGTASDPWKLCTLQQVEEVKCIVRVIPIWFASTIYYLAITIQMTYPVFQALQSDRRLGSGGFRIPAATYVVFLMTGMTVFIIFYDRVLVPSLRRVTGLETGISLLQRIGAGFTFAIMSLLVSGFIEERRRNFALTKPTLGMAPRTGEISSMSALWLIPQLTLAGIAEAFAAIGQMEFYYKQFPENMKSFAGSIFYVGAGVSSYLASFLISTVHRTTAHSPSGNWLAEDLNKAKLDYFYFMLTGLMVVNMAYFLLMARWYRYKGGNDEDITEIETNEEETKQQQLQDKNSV

SMILES: CSCCCC/C(=N/OS(=O)(=O)O)S[C@@H]1O[C@H](CO)[C@@H](O)[C@H](O)[C@H]1O [4-MTB, 4-methylthiobutyl glucosinolate]
- uptake by AtGTR2 measured by LC-MS analysis of oocyte extracts [1]: took up
- inward current ([2]; 100 μM substrate, pH 5, voltage clamped at −50 mV): ~30 nA
- Km ([2]; pH 5, clamped at −60 mV, Michaelis-Menten): 20 ± 1.2 µM
